The values that follow come from publication PMC5034337 (Scientific Reports, 2016).

Data set [1] concerns T24 bladder cancer cells.
Data set [2] relates to Caco-2 cells.
For data set [3] the following is noted: moderately exposed UK population; cited from earlier work.
Data set [4] concerns HT-29 colon carcinoma cells.
The conditions of data set [5]: in vivo; cited from earlier work.
Data set [6] has as its system primary human colon epithelial cells (HCEC-1CT).
In data set [7] the test system is mammalian ribosomes. The class given is biochemical, rabbit.
For data set [8] the following is noted: in vivo.
The conditions of data set [9]: French farmers with detectable DOM-1 levels; cited from earlier work.

For the compound `CC1=C[C@H]2O[C@@H]3[C@H](O)C[C@](C)([C@@]2(CO)[C@H](O)C1=O)[C@]31CO1` [DON, deoxynivalenol], the “concentration(s) with proliferative stimulus” value was 0.1 to 10 nM in [1], 10 nM in data set [2] and 0.1 µM in data set [4]. Further, the “cytotoxic effect” value in data set [1], in [2], in [4] and in data set [6] was “concentration dependent cytotoxicity” in each case. Also, the “lowest concentration at which the proliferative effect was present” value in data set [1] is 0.1 nM. Also, the “concentration from which a significant decrease of cell viability was detectable” value was 1 µM in data set [1] (human), 10 µM in data set [2] (human), 10 µM in [4] (human) and 1 µM in [6] (human). For the same compound, in [3], the “overall 24 h urinary excretion rate of total DON (sum of DON and its glucuronides), average” value is given as 72%. For the same compound, the maximum urinary concentration in data set [5] is 275 µg/L. Also, the “concentration at which translation was completely inhibited” value in data set [7] turned out to be 20 µM.
For `C=C1[C@@H]2O[C@@H]3C=C(C)C(=O)[C@@H](O)[C@]3(CO)[C@@]1(C)C[C@H]2O` [DOM-1, deepoxy-DON], the “detection in urine samples” value in [8] was “no DOM-1 was detected in any sample”. Further, in data set [9], the “share of the total urinary DON, average” value is below 5%.
